System: V. radiata
Settings: AgNO3 0-2 mM bolus doses, day 4 to day 8
Method: For two days beans were allowed to germinate in the dark at 20° C. as described above. On day 3, the plate was incubated at 20° C./12 hr photoperiod and 100% humidity, and 500 μL of distilled water were added to each well. On day 5 another 750 μL of distilled water were added and the cover of the well plate was removed. The EC50 was determined as the concentration at which the change in mass of the seedling was half that of untreated V. radiata.

Compound: O=[N+]([O-])[O-].[Ag+] [AgNO3, silver nitrate]
- change in mass of V. radiata: decreased significantly in a dose response fashion
